Experiments:
MV4-11 = test: Antiproliferative activity against human MV4-11 cells after 72 hrs by CelltiterGlo assay; type: functional; conditions: MV4-11, 72 h
[1] = tested on: Receptor-type tyrosine-protein kinase FLT3 (Homo sapiens), P36888 [UNDEFINED MUTATION]; test: Inhibition of FLT3 ITD mutant (unknown origin) expressed in BaF3 cells assessed as inhibition of cell proliferation after 72 hrs by CelltiterGlo assay; type: cell-based
[2] = Cytotoxicity against mouse BAF3 cells assessed as cell proliferation after 72 hrs by CelltiterGlo assay; type: cell-based

Chain of Receptor-type tyrosine-protein kinase FLT3 (Homo sapiens), P36888 [UNDEFINED MUTATION] (P36888 whole entry, looked up, stated change not applied): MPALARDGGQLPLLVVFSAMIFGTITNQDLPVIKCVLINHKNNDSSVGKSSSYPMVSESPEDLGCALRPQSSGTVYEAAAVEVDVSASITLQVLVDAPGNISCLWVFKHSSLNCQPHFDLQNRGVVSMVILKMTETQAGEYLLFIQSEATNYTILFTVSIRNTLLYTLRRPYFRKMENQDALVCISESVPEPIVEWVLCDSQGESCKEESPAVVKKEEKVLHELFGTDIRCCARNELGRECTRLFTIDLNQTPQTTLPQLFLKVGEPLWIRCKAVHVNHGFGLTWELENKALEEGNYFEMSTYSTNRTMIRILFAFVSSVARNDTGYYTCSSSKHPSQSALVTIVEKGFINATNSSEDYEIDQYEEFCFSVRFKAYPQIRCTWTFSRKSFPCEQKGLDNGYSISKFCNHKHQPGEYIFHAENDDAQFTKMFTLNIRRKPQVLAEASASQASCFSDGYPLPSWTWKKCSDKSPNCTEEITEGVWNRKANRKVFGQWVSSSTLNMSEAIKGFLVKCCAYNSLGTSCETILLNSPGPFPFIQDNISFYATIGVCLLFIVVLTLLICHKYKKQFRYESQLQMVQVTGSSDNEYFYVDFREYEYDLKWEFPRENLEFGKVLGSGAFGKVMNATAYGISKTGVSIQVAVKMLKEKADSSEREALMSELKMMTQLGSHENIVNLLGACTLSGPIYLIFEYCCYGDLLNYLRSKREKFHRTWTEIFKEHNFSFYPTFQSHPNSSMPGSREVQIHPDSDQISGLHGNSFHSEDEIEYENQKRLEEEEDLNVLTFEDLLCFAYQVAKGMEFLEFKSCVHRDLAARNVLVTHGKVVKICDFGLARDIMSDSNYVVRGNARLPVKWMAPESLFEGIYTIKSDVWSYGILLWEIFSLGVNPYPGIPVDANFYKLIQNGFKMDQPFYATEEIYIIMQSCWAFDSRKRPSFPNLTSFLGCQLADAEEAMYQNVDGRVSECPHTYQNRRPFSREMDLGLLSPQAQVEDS

SMILES	GI50 (MV4-11)	GI50 [1]	GI50 at 72 h [2]
CCCC(=O)N1CCC[C@@H](n2nc(-c3ccc(Oc4ccccc4)cc3)c3c(N)ncnc32)C1	1.2 µM	0.45 µM	> 10 µM
CS(=O)(=O)N1CCC(n2nc(-c3ccc(Oc4ccccc4)cc3)c3c(N)ncnc32)CC1	0.63 µM	0.19 µM	> 10 µM
CC(C)C[C@@H](N)C(=O)N1CCC(n2nc(-c3ccc(Oc4ccccc4)cc3)c3c(N)ncnc32)CC1	0.21 µM	0.075 µM	0.59 µM
CC(C)C[C@@H](N)C(=O)N1CC[C@@H](n2nc(-c3ccc(Oc4ccccc4)cc3)c3c(N)ncnc32)C1	0.12 µM	0.041 µM	2.15 µM
CN(C)CC(=O)N1CCC(n2nc(-c3ccc(Oc4ccccc4)cc3)c3c(N)ncnc32)CC1	0.11 µM	0.075 µM	3.65 µM
CS(=O)(=O)N1CCC[C@@H](n2nc(-c3ccc(Oc4ccccc4)cc3)c3c(N)ncnc32)C1	0.17 µM	0.048 µM	> 10 µM
CCC(C)(C)C(=O)N1CCC[C@@H](n2nc(-c3ccc(Oc4ccccc4)cc3)c3c(N)ncnc32)C1	2.4 µM	0.26 µM	4.5 µM
NCCC(=O)N1CCC[C@@H](n2nc(-c3ccc(Oc4ccccc4)cc3)c3c(N)ncnc32)C1	0.75 µM	0.39 µM	> 10 µM
CN1CCC(C(=O)N2CCC[C@@H](n3nc(-c4ccc(Oc5ccccc5)cc4)c4c(N)ncnc43)C2)CC1	0.16 µM	0.077 µM	5 µM
Nc1ncnc2c1c(-c1ccc(Oc3ccccc3)cc1)nn2[C@@H]1CCCN(C(=O)CC2CC2)C1	0.41 µM	0.082 µM	3.6 µM
CC(C)(C)CC(=O)N1CCC[C@@H](n2nc(-c3ccc(Oc4ccccc4)cc3)c3c(N)ncnc32)C1	2.4 µM	0.46 µM	4.6 µM
CC(=O)N1CCC[C@@H](n2nc(-c3ccc(Oc4ccccc4)cc3)c3c(N)ncnc32)C1	0.35 µM	0.07 µM	5.5 µM
CCS(=O)(=O)N1CCC[C@@H](n2nc(-c3ccc(Oc4ccccc4)cc3)c3c(N)ncnc32)C1	0.57 µM	0.14 µM	4 µM
CN(C)CC(=O)N1CCC[C@H](n2nc(-c3ccc(Oc4ccccc4)cc3)c3c(N)ncnc32)C1	0.28 µM	0.12 µM	5.8 µM
CC(C)(C)C(=O)N1CCC[C@@H](n2nc(-c3ccc(Oc4ccccc4)cc3)c3c(N)ncnc32)C1	> 10 µM	1.8 µM	> 10 µM
NCC(=O)N1CCC[C@@H](n2nc(-c3ccc(Oc4ccccc4)cc3)c3c(N)ncnc32)C1	0.022 µM	0.007 µM	3.8 µM

SMILES	GI50 (MV4-11)	GI50 [1]	GI50 at 72 h [2]
CN(C)CC(=O)N1CC[C@@H](n2nc(-c3ccc(Oc4ccccc4)cc3)c3c(N)ncnc32)C1	0.083 µM	0.041 µM	8.42 µM
Nc1ncnc2c1c(-c1ccc(Oc3ccccc3)cc1)nn2[C@@H]1CCCN(C(=O)C2CC2)C1	6.5 µM	1.4 µM	> 10 µM
CS(=O)(=O)N1CC[C@@H](n2nc(-c3ccc(Oc4ccccc4)cc3)c3c(N)ncnc32)C1	0.42 µM	0.13 µM	> 10 µM
CC[C@@H](C)[C@@H](N)C(=O)N1CCC[C@@H](n2nc(-c3ccc(Oc4ccccc4)cc3)c3c(N)ncnc32)C1	0.12 µM	0.088 µM	1.7 µM
C[C@@H](N)C(=O)N1CCC[C@@H](n2nc(-c3ccc(Oc4ccccc4)cc3)c3c(N)ncnc32)C1	0.054 µM	0.022 µM	3.8 µM
C=CC(=O)N1CCC[C@@H](n2nc(-c3ccc(Oc4ccccc4)cc3)c3c(N)ncnc32)C1 [IBRUTINIB]		0.12 µM	> 10 µM
Nc1ncnc2c1c(-c1ccc(Oc3ccccc3)cc1)nn2[C@@H]1CCCN(C(=O)[C@H](N)CO)C1	0.061 µM	0.046 µM	6.5 µM
CCC(=O)N1CCC[C@@H](n2nc(-c3ccc(Oc4ccccc4)cc3)c3c(N)ncnc32)C1	0.13 µM	0.028 µM	3.8 µM
CC(C)C[C@@H](N)C(=O)N1CCC[C@@H](n2nc(-c3ccc(Oc4ccccc4)cc3)c3c(N)ncnc32)C1	0.032 µM	0.005 µM	1.3 µM
CC(C)[C@@H](N)C(=O)N1CCC[C@@H](n2nc(-c3ccc(Oc4ccccc4)cc3)c3c(N)ncnc32)C1	0.027 µM	0.017 µM	1.4 µM
CC(O)[C@@H](N)C(=O)N1CCC[C@@H](n2nc(-c3ccc(Oc4ccccc4)cc3)c3c(N)ncnc32)C1 (some centres not stated)	0.064 µM	0.022 µM	3.9 µM
CCCS(=O)(=O)N1CCC[C@@H](n2nc(-c3ccc(Oc4ccccc4)cc3)c3c(N)ncnc32)C1	0.76 µM	0.16 µM	8.6 µM
NCC(=O)N1CC[C@@H](n2nc(-c3ccc(Oc4ccccc4)cc3)c3c(N)ncnc32)C1	0.18 µM	0.08 µM	7.59 µM
CN1CCN(CC(=O)N2CCC[C@@H](n3nc(-c4ccc(Oc5ccccc5)cc4)c4c(N)ncnc43)C2)CC1	0.23 µM	0.093 µM	2.3 µM
C=CC(=O)N1CCC[C@@H](n2nc(-c3ccc(/C=C/c4ccccc4)cc3)c3c(N)ncnc32)C1	> 10 µM	1.8 µM	> 10 µM
